In patent publication US20230089368A1, “POLYAROMATIC UREA DERIVATIVES AND THEIR USE IN THE TREATMENT OF MUSCLE DISEASES” (ANAGENESIS BIOTECHNOLOGIES S.A.S., priority 2019, published 2023):
Blank lines part the entries; values can stand above or below the molecule they belong to.

Experiments:
[1] = test system: muscle progenitors (hMP) from DMD hiPSC or WT hiPSC; test: Myotube assay: myogenic activity (total myotube area per well); format: cell-based, human; details: for Emax: Homo sapiens, 72 h, myotube assay, compounds incubated 3 days, read-out: MA (normalized Myotube Area, efficacy)
Procedure, shortened: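 DMD or WT hiPSC-derived muscle progenitors plated on collagen I in K5 medium with 5 μM Y-27632, treated with compound (1.5 nM–30 μM) for 3 days at 37° C. Cells were fixed, stained for alpha-actinin and imaged for total myotube area per well. EC50 and normalized myotube area (MA) taken from duplicate-averaged data.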

[2] = test system: satellite-like cells (Pax7-positive cells) in hMP; test: Myotube assay: Pax7-positive (satellite-like) cell quantification; format: cell-based, human; parameters: key to Pax7% (pool of Pax7-positive cells) / Pax7: −: Depletes the pool of cells, while positively affects the myotubes; +: Maintains or increases the pool of cells, with at least 1 of the highest concentration known to be cytotoxic; ++: Maintains or increases the pool of cells, without any toxicity; details: for Pax7% (pool of Pax7-positive cells): myotube assay, compounds incubated 3 days
Procedure, shortened: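 DMD hiPSC-derived muscle progenitors (hMP) proliferated 4 days, then plated on collagen I in K5 medium with 5 μM Y-27632. Compound added at 1.5 nM–30 μM for 3 days at 37° C, then cells fixed and immunostained. Pax7-positive cells counted as percentage of total nuclei, duplicates averaged.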

Compound: CNC(=O)c1ccc(Oc2cccc(NC(=O)Nc3cc(C(C)(C)C)nn3-c3ccccc3)c2)cn1 [(ab), 5-(3-(3-(3-(tert-butyl)-1-phenyl-1H-pyrazol-5-yl)ureido)phenoxy)-N-methylpicolinamide]
Emax [1]: 50 to 75%
Pax7% (pool of Pax7-positive cells) [2]: ++

Compound: CSc1cc(Oc2ccnc(NC(C)=O)c2)ccc1NC(=O)Nc1cc(C(C)(C)C)nn1-c1ccccc1 [(aq), N-(4-(4-(3-(3-(tert-butyl)-1-phenyl-1H-pyrazol-5-yl)ureido)-3-(methylthio)phenoxy)pyridin-2-yl)acetamide]
Emax [1]: ≥ 75%
Pax7% (pool of Pax7-positive cells) [2]: +

Compound: CSc1cc(Oc2ccnc3[nH]c(=O)[nH]c23)ccc1NC(=O)Nc1cc(C(C)(C)C)nn1-c1ccccc1 [(dm), 1-(3-(tert-butyl)-1-phenyl-1H-pyrazol-5-yl)-3-(2-(methylthio)-4-((2-oxo-2,3-dihydro-1H-imidazo[4,5-b]pyridin-7-yl)oxy)phenyl)urea]
Emax [1]: ≥ 75%
Pax7% (pool of Pax7-positive cells) [2]: −

EC50 ([1]; comparative compounds, same assay, NA: non active, read-out: EC50): 500 to 1000 nM
Compound: CC(C)(C)c1cc(NC(=O)Nc2ccc(Oc3ccnc4[nH]c(=O)cnc34)cc2F)n(-c2ccccc2)n1 [CCT196969]
MA ([1]; comparative compounds, same assay, NA: non active): ++ (50%≤MA<75%)
Pax7 ([2]; comparative compounds, same assay): +

Compound: Cc1cc(Oc2ccnc3[nH]c(=O)cnc23)ccc1NC(=O)Nc1cc(C(C)(C)C)nn1-c1ccccc1 [(al), 1-(3-(tert-butyl)-1-phenyl-1H-pyrazol-5-yl)-3-(2-methyl-4-((3-oxo-3,4-dihydropyrido[2,3-b]pyrazin-8-yl)oxy)phenyl)urea]
Emax [1]: ≥ 75%
Pax7% (pool of Pax7-positive cells) [2]: ++

Compound: CCOC(=O)Nc1cc(Oc2ccc(NC(=O)Nc3cc(C(C)(C)C)nn3-c3ccccc3)c3ccccc23)ccn1 [(da), Ethyl (4-((4-(3-(3-(tert-butyl)-1-phenyl-1H-pyrazol-5-yl)ureido)naphthalen-1-yl)oxy)pyridin-2-yl)carbamate]
Emax [1]: ≥ 75%
Pax7% (pool of Pax7-positive cells) [2]: +

Compound: CSc1cc(Oc2ccnc3[nH]c(=O)cnc23)ccc1NC(=O)Nc1cc(C(C)(C)C)nn1-c1ccc2ncccc2c1 [(bm), 1-(3-(tert-butyl)-1-(quinolin-6-yl)-1H-pyrazol-5-yl)-3-(2-(methylthio)-4-((3-oxo-3,4-dihydropyrido[2,3-b]pyrazin-8-yl)oxy)phenyl)urea]
Emax [1]: ≥ 75%
Pax7% (pool of Pax7-positive cells) [2]: +
